Where a name gives a salt, the structure may show the parent alone. Read-outs that look alike come from different tables or passages of the source.

Here are results for 2 molecules from patent publication US20040072824A1, “Methods and compositions for the treatment of cancer” (priority 2001, published 2004).

The test system of one series is LoVo cancer cells. The experiment in a line: Cytotoxicity on LoVo cancer cells. The settings on record: LoVo colorectal adenocarcinoma cells. The series is classed as cell-based. The protocol: (§1) The cells were grown on their respective propagation medium and seeded 24 hours before the compounds are added. The cells were trypsinized, and 50,000 cells/well and 10,000 cells/well were seeded in order to read the plates at 48 hours and 144 hours after being treated by the compounds, respectively.
(§2) On the day of the treatment, the medium was replaced by 10 ml each of series dilution of the compounds, consisting of: control, which contained no compound of this invention; 1:100 dilution; 1:1,000 dilution; 1:2,000 dilution; and 1:5,000 dilution. The starting concentrations for these dilutions were: 50 mg/ml for compound A; 10 mg/ml for compound B; 25 mg/ml for compound C; and 5 mg/ml for compound D. The dilution was made using the growth medium.

Series [1] concerns Poly ADP-Ribose Polymerase (PARP). The experiment in a line: PARP cleavage in treated U937 cells (western blot). The note with it: 24 hours. The series is classed as cell-based. The protocol: U937 cells were treated with various concentrations of hydroxyzine and promethazine for 24 hours. The proteins were isolated from these cells and loaded onto a gel for a western blot analysis. A specific anti-PARP antibody was used to visualize the location of PARP.

In series [2] the test system is blastic cells from AML patients. The experiment in a line: Inhibition of viability of fresh leukemic cells (trypan blue exclusion). The series is classed as cell-based, human. The note with it: Homo sapiens, day 3; for cytotoxicity at 100 µM: 10^-4 M; for cytotoxicity at 10 µM: 10^-5 M. In a few lines:
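Blasts from AML samples 1 to 5 (least to most differentiated) were incubated with or without anti-histamine derivatives, with Polaramine as negative control. Viable counts by trypan blue exclusion at day 3, with Wright-Giemsa morphology. Values are % growth inhibition versus negative control.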

In series [3] the test system is K562, U937, Jurkat, T47-D, MCF7, BT20 and 184B5 cell lines. The experiment in a line: Cytotoxicity in malignant and immortalized cell lines (manual counting, Alamar assay). The series is classed as cell-based. The settings on record: for cytotoxic activity: dilutions greater than 1:1,000, especially about 1:10,000; for cytotoxicity: dilutions of from 1:100 to 1:1,000, 48 and 144 hours after treatment. The protocol:
These four compounds were added at different concentrations to cultures of various malignant cell lines and normal cells. The cell lines used for these tests were the following:
All leukemic cell lines were grown and used in logarithmic phase. After one day of treatment, the cells were isolated, counted and diluted in a regular growth medium to provide the cell density of about 75×10^3 cells/ml for reading on plates at 48 hours after the treatment, and […] for reading at 144 hours after the treatment.
(§3) Several dilutions of each compound tested were added to the wells (12 wells per plate, TPP), and 1 ml of cells from the parent solution was added per well after a line had been completed. The dilutions were made using the culture medium, and following dilutions were tested: control, which contained no compound of this invention; 1:100; 1:1,000; 1:2,000; 1:5,000; and 1:10,000. The starting concentrations for these dilutions were: 50 mg/ml for compound A; 10 mg/ml for compound B; 25 mg/ml for compound C; and 5 mg/ml for compound D. The results were analyzed by manual counting and Alamar reduced assay.
as §1, §2
A tested compound is regarded as being active in cytotoxicity where the percentage of surviving cells after the treatment with the compound is less than 30%.

The test system of series [4] is lymphocytes from healthy donors. The experiment in a line: Cytotoxicity on lymphocytes from healthy donors. The series is classed as cell-based, human. The settings on record: 48 hours after treatment, even at 1:1,000 dilution; three healthy donors. The protocol: as §3
The blood from healthy donors was collected on citrate and diluted 1:1 with 0.15M NaCl. The dilution (6 ml) was loaded onto 3 ml of lymphoprep® (Nycomed), and the mixture was centrifuged at 800 g for 30 minutes at room temperature. The white cells were isolated and washed with RPMI1640 and 10% FBS. The white cells were diluted to provide 450,000 cells/m in RPMI1640/10% FSB medium. The tests for the compounds of this invention were performed according to the same procedures described in Section 5.1.1.

A further series has as its system TCTP. The experiment in a line: TCTP expression in treated U937 cells (western blot). The series is classed as cell-based. The note with it: 24 hours, various dilutions. The protocol:
U937 cells were treated with various dilutions of hydroxyzine, brompheniramine and promethazine for 24 hours as denoted in FIG. 23A. Starting concentrations were: 50 mg/ml for […] (“A”); 10 mg/ml for brompheniramine (“B”); and 25 mg/ml for promethazine (“C”). The proteins were isolated from these cells and loaded onto a gel for western blot analysis. A specific anti-TCTP (anti-HRF) antibody was used to visualize the location of TCTP. […] The level of actin in equal loading of extract was visualized by antiactin antibody (Santa Cruz Biotechnology). No substantial difference between the level of actin in treated and untreated cells was observed.

Series [5] has as its system MDA-MB-231 (breast cancer line). Description: Curative effects on palpable tumors, MDA-MB-231 cells in scid/scid mice. The class given is in vivo. The settings on record: 11.25 mg/kg or 22.5 mg/kg daily once tumors palpable. The protocol:
In this series of experiments, effects of various compounds of the present invention on tumor development were tested using two protocols. The first protocol is directed to the testing of curative effects of these compounds in different cell lines. In this protocol, cancerous cells are inoculated to the animals, and the inoculated animals were left without any further treatment until the development of tumors. As soon as the tumors became palable (4 mm^3), the compounds of this invention were administered daily to the animals.

Another series deals with U937. The class given is in vivo. The note with it: treatment from day 1, cells inoculated after more than 24 hours, daily administration. The protocol: The second protocol was designed to test the preventive effects of the compounds of this invention on tumorigenesis. In this protocol, the animals have been treated with various compounds of the present invention on day 1. After more than 24 hours, tumoral cells were inoculated. The administration of the compounds of this invention was maintained daily. The cell line used for this test was U937.

For another series, the system named is U937 cells. The experiment in a line: Antineoplastic activity, U937 cells injected in scid/scid mice, treatment from day 1. The class given is in vivo. The settings on record: 11.25 mg/kg daily intraperitoneally; six mice. The protocol:
Ten million U937 cells were subcutaneously injected into scid/scid mice. One injection was carried out per each of the 6 mice tested per set. The excipient or the compounds tested were administered intraperitoneally on day 1, i.e., the day of U937 cell line inoculation, of the experiment. The excipients or compounds were administered once daily. The tumor sizes were measured on day 5, day 8, day 12, day 14 and day 19 after the injection.

Where [6] appears, read: 72 h, MEAN over AML patients, read-out: In Vitro Percent Inhibition of Viability, MEAN.
Where [7] appears, read: 72 h, patient ID 4, FAB AML2, read-out: In Vitro Percent Inhibition of Viability.
[8] abbreviates: 72 h, patient ID 14, FAB AML5, read-out: In Vitro Percent Inhibition of Viability.
Where [9] appears, read: AML1, 72 h, patient ID 1, FAB AML1, read-out: In Vitro Percent Inhibition of Viability.

For the molecule `OCCOCCN1CCN(C(c2ccccc2)c2ccc(Cl)cc2)CC1` (stereo not shown) [hydroxyzine, hydroxyzine dihydrochloride], the “growth / resistance of LoVo cells” value in the series on LoVo cancer cells (dihydrochloride) is given as “unaffected”; in the series on LoVo cancer cells (listed as A, dihydrochloride), “totally resistant”. Besides, in series [1], the “PARP cleavage (induction of apoptosis)” value is listed as “cleave PARP”. The cytotoxicity at 100 µM in [2] (setting [6]) came out at 55%; in [2] (setting [7]), 44%; in series [2] (setting [8]) it was 45%; in [2] (setting [9]) it was 77%. Moreover, the cytotoxicity at 10 µM came out at 12% in series [2] (setting [6]), 9% in [2] (setting [7]), 18% in series [2] (setting [8]) and 10% in series [2] (setting [9]). Also, in [3], the cytotoxic activity result is given as “little cytotoxic activity”. For the same molecule, the cytotoxicity entry in [3] is given as “very good cytotoxicity”. In [4], the surviving cell counts entry is given as “substantial”. In the series with TCTP, the “expression of TCTP” value was “inhibit the expression of TCTP”.
As for `CC(CN1c2ccccc2Sc2ccccc21)N(C)C` (stereo not shown) [promethazine], the tumor volume entry in [5] was “The same is also true for certain animals”. Further, the “growth / resistance of LoVo cells” value with LoVo cancer cells is reported as “unaffected”. Also, the “growth / resistance of LoVo cells” value in the series with LoVo cancer cells (listed as C) was “totally resistant”. The “PARP cleavage (induction of apoptosis)” value in [1] is “cleave PARP”. The “tumor growth compared to the negative control” value in the series on U937 is on record as “decrease in tumor growth”. In series [3], the cytotoxic activity entry is given as “little cytotoxic activity” and the cytotoxicity entry is on record as “very good cytotoxicity”. For the same molecule, the surviving cell counts result in series [4] is recorded as “substantial”. In the series with U937 cells, the “mice that developed a tumor” value is on record as “one out of six”. Also, the “expression of TCTP” value with TCTP was “inhibit the expression of TCTP”.
